Assay results: the METLIN SMRT retention time set (Domingo-Almenara et al. 2019)

Assay: gradient 5% acetonitrile 3 min, to 50% in 2 min, to 85% in 15 min, held 3 min, 100 µL/min
Conditions: column: Zorbax Extend-C18 2.1 x 50 mm; eluents: water / acetonitrile, 0.1% formic acid
Method in brief: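 Data were gathered over 3 months by HPLC coupled to a quadrupole time-of-flight mass spectrometer, operated in positive and negative ionization mode. Mixtures of ~100 pure standards ran on a Zorbax Extend-C18 column (2.1 × 50 mm, 1.8 μm) at 100 μL/min, with water and acetonitrile each containing 0.1% formic acid and dead and dwell volumes of 40 μL and 900 μL. Retention time was read from adduct peaks picked by computer and checked manually.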

SMILES | RP-LC retention time [s]
O=C(CSc1ccc(-c2ccccn2)nn1)N1CCCCC1 | 669
O=C(CSCc1ccccc1)N1CCC(c2nnc(C(F)(F)F)o2)CC1 | 857
CN(C)c1cccc(C(=O)NC2CCN(c3ccc(F)cc3)C2=O)c1 (stereo not given) | 705
O=C(c1ccc(F)cc1)N1CCN(c2nnc3ccccn23)CC1 | 613
COc1cccc(S(=O)(=O)N2CCC3(CC2)C(OC)CN3c2cccc(F)c2)c1 (stereo not given) | 1160
Cc1c(C(=O)N2CCN(C)CC2)cnn1-c1ccc(-c2nc(C3CC3)no2)cn1 | 635
Cc1ccnc(N2CCCC(C(=O)NCCN(CCc3ccccc3)Cc3ccco3)C2)n1 (stereo not given) | 671
CCn1ccc2c(cc(C(=O)Nc3ccc(Br)cc3C)n2C)c1=O | 832
O=C(NC1CCCC1)c1ccc2c(c1)nc1n2CCCCC1 | 600
CN1CCN(C(CNS(=O)(=O)c2cc(F)ccc2F)c2cccn2C)CC1 (stereo not given) | 580
CN1C2CCC1CC(OC(=O)c1cc(Cl)cc(Cl)c1)C2 (stereo not given) | 669
O=C(Cn1cnc2c(nc3n2CCCCC3)c1=O)NCc1ccco1 | 618
O=C(NCCc1ccccc1)C(=O)NCC(c1ccc2c(c1)OCO2)N1CCOCC1 (stereo not given) | 672
O=C(Nc1cccc2nsnc12)C1CCN(c2ccc(-c3ccc(F)cc3)nn2)CC1 | 681
Cc1ccc(C)c(NC(=O)C2CCCN(S(=O)(=O)c3c[nH]c(C(=O)N4CCCCCC4)c3)C2)c1 (stereo not given) | 923
CCCC(=O)Nc1sc2c(c1C(=O)Nc1ccccc1C)CCC2 | 1250
CC(NC(=O)c1ccccc1)c1nc(-c2ccc3nnn(C)c3c2)no1 (stereo not given) | 641
CCc1ccc(N2C(=O)c3c(C(=O)OC)ncn3CC2(C)C(=O)NC2CCCC2)cc1 (stereo not given) | 615
O=C(CSc1nnc(-c2ccc3c(c2)OCO3)o1)N1CCc2ccccc2C1 | 990
Cc1nc2cc(NC(=O)c3csc(Nc4ncccn4)n3)ccc2s1 | 706
O=C(Cn1c(=O)n(-c2ccc(F)cc2)c2ncccc21)NC1CCCC1 | 773
COC(=O)c1ccccc1NC(=O)N1CCN(Cc2nc(-c3cccc(Cl)c3)oc2C)CC1 | 809
CCCN1C(=O)c2cc(S(=O)(=O)Nc3cccc(Cl)c3)ccc2Oc2cccnc21 | 1120

SMILES | RP-LC retention time [s]
COc1cccc(-c2[nH]ncc2CN2CCC3(CC2)CC(O)CCO3)c1 (stereo not given) | 576
COCCN1C(=O)Cc2ccccc2C1C(=O)NCc1ccccc1 (stereo not given) | 684
Brc1ccc(-c2ccc(CNc3ncn[nH]3)o2)cc1 | 708
CN(C)S(=O)(=O)c1ccc(Cl)c(-c2nnc(-c3ccccc3)o2)c1 | 983
CCC(=O)Nc1cc2c(cc1S(=O)(=O)c1ccc(C)cc1)n(C)c(=O)n2C | 767
Cc1occc1C(=O)Nc1nc(-c2ccc(CC(C)C)cc2)cs1 | 1350
O=C(COc1ccc(F)cc1)Nc1ccc(-c2nc(-c3ccc(Cl)cc3)no2)cc1 | 1340
COc1ccc(-c2ccnc3nc(Cc4ccc(F)cc4)nn23)cc1OC | 851
CC1=C(C(=O)N2CCOCC2)C(c2cccc(Br)c2)C2=C(CCCC2=O)N1 (stereo not given) | 664
O=C(c1cc(F)ccc1F)N1CCC(OCC2CC2)C1 (stereo not given) | 772
CCOc1cccc(-c2noc(Cc3nnc(-c4ccccc4)o3)n2)c1 | 1060
O=C(COc1ccc(F)c(F)c1)N1CCN(c2ncccc2-c2nnc(C3CC3)o2)CC1 | 822
Cn1c(=O)c2cc(C(=O)N3CCN(C(=O)c4ccco4)CC3)sc2n(C)c1=O | 574
O=[N+]([O-])c1ccc(-c2cn(-c3ccc(Cl)cc3)cn2)cc1 | 933
Cc1ccsc1C(=O)NC1CCc2nnc(C3CC3)n2CC1 (stereo not given) | 587
O=C(c1cc(-c2ccccn2)n[nH]1)N1CCCC(C(=O)N2CCc3ccccc32)C1 (stereo not given) | 713
Cc1ccc(F)cc1NC(=O)c1cnc(-c2ccc(F)cc2)nc1-c1ccncc1 | 1060
O=C(NCc1ccc2c(c1)OCO2)C1Cn2cccc2C(=O)N1Cc1ccccc1 (stereo not given) | 805
COC(=O)c1cc2c(=O)n(CCN3CCOCC3)ccc2nc1C | 560
Cn1cc(CCNC(=O)Nc2ccccc2Br)c2cccnc21 | 722
COCCn1nnnc1C1CC2(CCOCC2)C(=O)N1Cc1ccc(Cl)cc1 (stereo not given) | 904
O=C(NCc1ccccc1)C1CCN(C(=O)c2ncn3c2COC(c2ccccc2)C3)CC1 (stereo not given) | 760
CN1c2cc(C(=O)N3CCN(C4CCCCC4)CC3)ccc2C(=O)N2CCCCC21 (stereo not given) | 608

SMILES | RP-LC retention time [s]
Cc1ccc(=O)n(CC(=O)NCc2cccs2)n1 | 591
CC(C)Cn1c(-c2cccc(C(=O)NC(C)C)c2)nc2cccnc21 | 763
O=C([C@@H]1C[C@H](F)CN1S(=O)(=O)c1ccc(Cl)cc1)N1CCCCC1 | 852
O=C(Nc1ccc2c(c1)OCO2)C1CC(=O)N(CCc2c[nH]c3ccc(F)cc23)C1 (stereo not given) | 750
COc1ccc2c(c1)c(CN1CCCCCCN(C)C(=O)[C@@H]3CCC[C@@H]31)cn2C | 721
CCCN1CCN(C(=O)C(C)C2CCN(S(=O)(=O)c3ccc(Cl)s3)CC2)CC1 (stereo not given) | 674
Nc1ncnc(Nc2ccc(Cl)cc2)n1 | 704
Cc1cc(C)cc(N2CCC(NC(=O)Nc3ccccc3Cl)C2=O)c1 (stereo not given) | 936
COc1ccccc1NC(=O)Nc1cccc(-c2ccc(N3CCOCC3)nn2)c1 | 702
Cc1ccc(CNC(=O)CCc2nnc3c4cc(-c5ccccc5)nn4ccn23)o1 | 749
CCOc1ccc(-c2cc3c(=O)n(Cc4nc(-c5ccccc5C)no4)ncn3n2)cc1 | 1130
Cc1oc(C(C)C)nc1C(=O)NCc1cccc(C(F)(F)F)c1 | 1080
CSc1ccc(NC(=O)N2CCC(c3nc(C(=O)N4CCCCC4)c(C)o3)CC2)cc1 | 840
CCCN1C(=O)COc2ccc(-c3noc(-c4ccc(C)cc4)n3)cc21 | 1300
Cc1ccc(S(=O)(=O)N2CCC(CCNC(=O)NC(C)(C)C)CC2)cc1 | 885
CCC(=O)N1c2ccc(S(=O)(=O)N3CCCCC3)cc2CC1C(=O)NC1CC1 (stereo not given) | 758
Cc1cc(C)cc(Nc2c(C(=O)N3CCOCC3)cnc3nc(C)ccc23)c1 | 604
CN1CCC(NC(=O)C2CCc3sc(C(=O)N4CCOCC4)cc3C2)CC1 (stereo not given) | 606
N#CCCN1CCN(c2ccc(NC(=O)c3ccc(Br)cc3)c(C(=O)O)c2)CC1 | 678
Cc1ccc(CSc2nnc3c(S(=O)(=O)N4CCN(c5ccc(F)cc5)CC4)cccn23)cc1 | 998
COCC1CN(S(=O)(=O)c2cccc(C#N)c2)CC12CCNCC2 (stereo not given) | 609
CO[C@H]1C(=O)N(C(C)C)[C@H]1C1CCN(C(=O)c2ccsc2)CC1 | 693
CCN1CCN(S(=O)(=O)c2cc(-c3nc(C)cs3)n(CC(=O)N3CCCCC3)c2)CC1 | 675

SMILES | RP-LC retention time [s]
O=C(Nc1ccc(F)c(F)c1)C1CCN(C(=O)c2ncn3c2COC(c2ccccc2)C3)CC1 (stereo not given) | 819
CCCC(=O)Nc1ccc2c(c1)CN(C(=O)Cc1ccc(C)cc1)C(C(=O)N(C)C)C2 (stereo not given) | 748
CCN1CCN(CCNC(=O)CN2CCCc3nc(C4CC4)ncc3C2=O)CC1 | 564
Cc1c(C(=O)NCCCN2CCC(C)CC2)sc2ncn(CC(=O)N3CCCCC3C)c(=O)c12 (stereo not given) | 628
CC(NC(=O)c1ccccn1)C(=O)Nc1nc2ccccc2[nH]1 (stereo not given) | 608
COCCCNC(=O)c1csc(N2CCN(c3ccc(F)cc3)CC2)n1 | 915
Cn1cc(C(=O)NCc2ccccc2Cl)c(S(=O)(=O)N2CCSCC2)n1 | 890
O=C(C1=CN(c2ccc(Cl)c(Cl)c2)c2cc(F)ccc2S1(=O)=O)N1CCOCC1 | 882
Cc1ccc(-n2c(=O)c3c(cc(C)n3C)n(CC(=O)Nc3c(C)cccc3C)c2=O)cc1 | 912
O=C(NCc1cc(F)cc(F)c1)C1CCCN(c2nc3ccsc3c(=O)n2Cc2ccccc2)C1 (stereo not given) | 1050
COc1ccc(-c2noc(Cc3nnc(-c4cccc(Br)c4)o3)n2)cc1OC | 988
Cc1cc2c(SCC(=O)N3CCCc4ccccc43)ncnc2s1 | 950
COc1cc(C(=O)N2CCC(C(=O)NCCc3cscn3)CC2)cc(OC)c1OC | 631
COc1ccc(S(=O)(=O)NCc2cccnc2-c2ccc(C)cc2)cc1 | 679
NC(=O)C1CCN(C(=O)c2cn(-c3cccc(F)c3)nn2)CC1 | 608
CN(CC1CCOC1)C(=O)Nc1ccc(Cl)cc1 (stereo not given) | 696
CCn1nccc1C(=O)NCCn1c(=O)n(Cc2cccc(C)c2)c2cccnc21 | 784
CCn1nccc1-c1cccc(-c2noc(-c3cc4ccccc4oc3=O)n2)c1 | 1060
CN1C(=O)c2cc(C(=O)NCc3ccccc3F)nn2CC1(C)C(=O)NC1CCCC1 (stereo not given) | 698
CCn1cnc2cc(CNC(=O)c3ccc(C(F)(F)F)cc3)ccc21 | 651
CCOc1ccc(S(=O)(=O)N2CCC(C(=O)NCCCO)CC2)cc1C | 707
